In one data set the test system is NCI-H157. In words: Antiproliferative activity against human NCI-H157 cells assessed as cell growth inhibition after 48 hrs by SRB assay. The note with it: NCI-H157, 48 h. Type of data set: functional, cell-based. On the technique in general: Sulforhodamine B stains cellular protein and so reports cell mass.
A short description of data set [1]: Antiproliferative activity against African green monkey Vero cells assessed as reduction in cell viability at 100 uM after 48 hrs by SRB assay. Type of data set: cell-based. The settings on record: chlorocebus sabaeus.
In a further data set the target is Urease (Canavalia ensiformis, UniProt P07374). In words: Inhibition of Jack bean urease assessed as production of ammonia after 30 mins by indophenol method.
Sequence of Urease (P07374 whole entry): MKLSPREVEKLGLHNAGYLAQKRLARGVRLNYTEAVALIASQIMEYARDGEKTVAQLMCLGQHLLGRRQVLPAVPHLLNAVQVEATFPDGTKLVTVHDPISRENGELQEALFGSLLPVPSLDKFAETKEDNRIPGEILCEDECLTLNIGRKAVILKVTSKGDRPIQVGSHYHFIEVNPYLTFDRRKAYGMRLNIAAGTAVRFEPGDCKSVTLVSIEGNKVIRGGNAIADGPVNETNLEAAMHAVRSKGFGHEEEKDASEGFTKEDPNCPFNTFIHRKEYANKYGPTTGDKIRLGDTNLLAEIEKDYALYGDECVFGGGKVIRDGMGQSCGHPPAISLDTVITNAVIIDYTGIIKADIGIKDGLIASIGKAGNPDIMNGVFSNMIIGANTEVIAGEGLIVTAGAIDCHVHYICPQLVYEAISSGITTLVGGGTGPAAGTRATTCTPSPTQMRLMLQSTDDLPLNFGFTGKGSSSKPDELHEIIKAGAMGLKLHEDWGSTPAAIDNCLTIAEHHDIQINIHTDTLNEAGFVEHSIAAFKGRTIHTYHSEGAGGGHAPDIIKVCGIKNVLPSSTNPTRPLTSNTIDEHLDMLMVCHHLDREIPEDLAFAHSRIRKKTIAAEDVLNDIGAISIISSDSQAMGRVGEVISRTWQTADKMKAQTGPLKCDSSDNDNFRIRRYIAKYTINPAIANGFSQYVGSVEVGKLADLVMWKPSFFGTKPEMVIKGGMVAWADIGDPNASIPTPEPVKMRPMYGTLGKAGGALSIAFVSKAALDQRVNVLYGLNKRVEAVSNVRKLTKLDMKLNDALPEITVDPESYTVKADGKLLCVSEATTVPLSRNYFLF
Data set [2] has as its target Urease (Canavalia ensiformis) (UniProt P07374). Briefly: Inhibition of Jack bean urease assessed as production of ammonia at 10 mM after 30 mins by indophenol method.

Sequence of Urease (Canavalia ensiformis) (P07374 whole entry, looked up): as the sequence (P07374 whole entry) above

As for `Cc1ccc(/N=C2\C(=O)Nc3ccccc32)cc1/N=C1\C(=O)Nc2ccccc21`, the IC50 came to 3.76 µM with NCI-H157 and 1.15 µM at Urease. Further, the inhibition at 48 h, 100 µM in data set [1] turned out to be 23.6%. Also, in data set [2], the inhibition was above 50%.
The like results for `Cc1ccc(/N=C2\C(=O)Nc3ccc([N+](=O)[O-])cc32)cc1/N=C1\C(=O)Nc2ccc([N+](=O)[O-])cc21` were, in that order, 3.73 µM, 5.86 µM, 10.9% and above 50%.
The like results for `Cc1ccc2c(c1)/C(=N/c1ccc(C)c(/N=C3\C(=O)Nc4ccc(C)cc43)c1)C(=O)N2` were, in that order, 3.01 µM, 0.34 µM, 13.4% and above 50%.
The like results for `Cc1ccc(/N=C2\C(=O)Nc3ccc(Br)cc32)cc1/N=C1\C(=O)Nc2ccc(Br)cc21` were, in that order, 2.32 µM, 0.04 µM, 18.7% and above 50%.
For the compound `Cc1ccc(/N=C2\C(=O)Nc3ccc(Cl)cc32)cc1/N=C1\C(=O)Nc2ccc(Cl)cc21`, the IC50 in the data set with NCI-H157 amounted to 2.56 µM; at Urease, 0.11 µM. Besides, the inhibition at 48 h, 100 µM in data set [1] was 18.5%. Also, the inhibition in data set [2] is above 50%.
The like results for `Cc1ccc(/N=C2\C(=O)Nc3ccc(F)cc32)cc1/N=C1\C(=O)Nc2ccc(F)cc21` were, in that order, 2.99 µM, 1.65 µM, 22.1% and above 50%.
Regarding `CC[C@]1(O)C[C@H]2CN(CCc3c([nH]c4ccccc34)[C@@](C(=O)OC)(c3cc4c(cc3OC)N(C=O)[C@H]3[C@@](O)(C(=O)OC)[C@H](OC(C)=O)[C@]5(CC)C=CCN6CC[C@]43[C@@H]65)C2)C1` [VINCRISTINE], the inhibition at 48 h, 100 µM in data set [1] stood at 16.8%.
With `Cc1ccc(/N=C2\C(=O)Nc3ccc(S(=O)(=O)O)cc32)cc1/N=C1\C(=O)Nc2ccc(S(=O)(=O)O)cc21`, the IC50 was found to be 3.88 µM in the data set with NCI-H157 and 25.2 µM on Urease. The inhibition at 48 h, 100 µM in data set [1] was 11.7%. Also, the inhibition in data set [2] was above 50%.

By IC50 is commonly meant the concentration that inhibits the measured activity by half. Usually inhibition stands for the percentage by which the read-out fell short of the control.
